Data reported in patent US9573907B2, “2, 4-pyrimidine derivatives and use thereof” (SNU R&DB FOUNDATION, priority 2009, dated 2017).

What was measured:
[1] = test system: cell surface gp96 of splenocytes isolated from C57BL/6 mice; assay: Flow cytometry of cell surface gp96 on splenocytes; format: cell-based; settings: 10 μM, 24 h
Protocol: (§1) FIGS. 1 to 9 represent suppression of cell surface gp96 by GPM1 reduces DC maturation and B220^+ population in gp96tm transgenic mice. (FIG. 1) Chemical structure of GPM1 (Formula 2) and negative control (NC1, Formula 16) used in this study. (FIG. 2) The dose-dependent effect of GPM1 or NC1 on the AIMP1-gp96 interaction using ELISA method as described. The indicated concentrations of the two compounds and biotin-conjugated murine gp96 were added to AIMP1 coated on the surface of microtiter wells, and gp96 bound to AIMP1 was detected with strepavidin-conjugated peroxidase. (FIG. 3) The binding of GPM1 to gp96 was examined by surface plasmon resonance (SPR). GPM1 at the indicated concentrations was injected to immobilized gp96 and the binding was measured using Biacore 3000. The response data were processed using data from a reference surface and buffer injections. Each concentration was tested in triplicate. (FIG. 4) RAW24.7 cells were treated with 10 μM GPM1 for 24 h. Cell lysates were immunoprecipitated with control IgG or anti-gp96 antibody and the immunoprecipitated proteins were immunoblotted with anti-KDELR1, antiAIMP1 and gp96 antibodies. WCL means whole cell lysate. […] TNFα secreted from BMDCs was quantified by ELISA. […]

[2] = biological target: T1, gp96 Y731F (Homo sapiens, UniProt P14625, Y735F); assay: Surface plasmon resonance, GPM1 binding to gp96 mutant Y731F
T1 construct: made in house; host or cells: Escherichia coli BL21 (DE3)
Protocol: Human gp96 was expressed as His tag fusion protein in Escherichia coli BL21 (DE3) and purified by nickel affinity chromatography. His-tagged human gp96 was immobilized onto CM5 sensor chips using standard amine coupling2. PBS was used as a running buffer. The carboxymethyl dextran surface within one side of the flow cell was activated with a 7-min injection of a 1:1 ratio of 0.4M EDC and 0.1M NHS. The protein was coupled to the surface with a 7-min injection of gp96 diluted in 10 mM sodium acetate, pH 3.7. Remaining activated groups were blocked with a 7-min injection of 1.0M ethanolamine, pH 8.5. GPM1 compound was dissolved directly in the PBS running buffer containing 1% DMSO and injected at a flow rate of 20 μl/min at 25° C. and the binding was determined by the change in resonance units (RU). The compound concentration varied from 10 nM to 25 μM and each concentration was tested at least three times. All of the bound complexes dissociated back to baseline within a reasonable time frame. Therefore, no regeneration was required. Sensorgram was processed by subtracting the binding response recorded from the control surface, followed by subtracting an average of the buffer blank injections from the reaction spot. To determine kinetic rate constants, all data sets were fit to a simple 1:1 binding with drifting baseline model using BIAevaluation program.
(§2) The present inventors compared the dose-dependent effect of GPM1 and NC1 on the interaction of gp96 and AIMP1 using ELISA. […] The present inventors monitored the binding kinetics of GPM1 to gp96 or AIMP1 by surface plasmon resonance (SPR) using BIAcore 3000. […] To further define the GPM1 binding region of gp96 (Han, J. M., Park, S. G., Liu, B., Park, B. J., Kim, J. Y., Jin, C. H., Song, Y. W., Li, Z. & Kim, S. Am. J. Pathol. 170, 2042-2054 (2007)), the present inventors introduced point mutations at L707, V706, V712, L713, F714, Y731 and M738 that are located within AIMP1 binding region of gp96 and monitored how the mutations at these sites would affect the binding of GPM1 to gp96 using SPR method.

[3] = biological target: T2, AIMP1 (Homo sapiens, UniProt Q12904); assay: Surface plasmon resonance, binding to AIMP1; settings: SPR, BIAcore 3000
T2 sequence (Q12904 1-312): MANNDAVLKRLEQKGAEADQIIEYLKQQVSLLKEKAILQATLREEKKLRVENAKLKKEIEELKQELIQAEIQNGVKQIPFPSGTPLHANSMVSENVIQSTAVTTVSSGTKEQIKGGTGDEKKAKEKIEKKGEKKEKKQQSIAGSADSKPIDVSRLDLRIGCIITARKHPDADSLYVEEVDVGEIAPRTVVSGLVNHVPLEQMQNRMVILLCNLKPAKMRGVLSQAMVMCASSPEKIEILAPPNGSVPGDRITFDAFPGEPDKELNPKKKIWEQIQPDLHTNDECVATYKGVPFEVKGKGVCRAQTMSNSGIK
From the text: as §2

[4] = test system: bone marrow-derived DCs; assay: DC maturation assay (secreted TNFα); format: cell-based, mice; settings: AIMP1−/− splenocytes pretreated 10 μM, 24 h; compared to NC1
Protocol: as §1

T1 sequence (P14625 22-803 Y735F): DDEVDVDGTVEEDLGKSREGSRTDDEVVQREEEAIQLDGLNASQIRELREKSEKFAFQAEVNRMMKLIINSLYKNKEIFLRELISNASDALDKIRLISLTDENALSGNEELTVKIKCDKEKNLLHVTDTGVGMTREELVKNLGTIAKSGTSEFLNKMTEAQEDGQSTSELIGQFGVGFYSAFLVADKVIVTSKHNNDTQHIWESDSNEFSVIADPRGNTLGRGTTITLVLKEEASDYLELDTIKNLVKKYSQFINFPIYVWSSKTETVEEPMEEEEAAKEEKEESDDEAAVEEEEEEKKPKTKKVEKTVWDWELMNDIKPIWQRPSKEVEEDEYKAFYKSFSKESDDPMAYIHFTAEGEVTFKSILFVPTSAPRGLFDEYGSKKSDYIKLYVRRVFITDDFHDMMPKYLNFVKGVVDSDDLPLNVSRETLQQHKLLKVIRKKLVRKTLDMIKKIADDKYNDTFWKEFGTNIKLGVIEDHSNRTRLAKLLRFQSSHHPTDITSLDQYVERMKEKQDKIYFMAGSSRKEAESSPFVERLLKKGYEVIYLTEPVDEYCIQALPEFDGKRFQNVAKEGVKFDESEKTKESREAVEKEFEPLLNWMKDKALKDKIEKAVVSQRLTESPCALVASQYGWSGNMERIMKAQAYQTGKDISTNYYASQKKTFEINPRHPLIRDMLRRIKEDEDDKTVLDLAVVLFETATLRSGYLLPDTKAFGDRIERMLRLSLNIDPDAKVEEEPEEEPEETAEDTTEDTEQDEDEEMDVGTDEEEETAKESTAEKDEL

COC(=O)[C@@H](Oc1nc(OC)cc(OC)n1)C(C)C [GPM1, (S)-methyl 2-(4,6-dimethoxypyrimidin-2-yloxy)-3-methylbutanoate]
surface gp96 of mouse splenocytes [1]: decreased | Kd [2]: 730 nM | koff (dissociation rate constant) [2]: 0.0149 s⁻¹ | kon ([2]; read-out: Ka): 20400 M⁻¹ s⁻¹ | binding to AIMP1 [3]: no apparent binding | amount of secreted TNF-α [4]: significantly reduced
